The source made the active and inactive calls. The rule behind the calls is not given here.
Legend:
[1] = species on record: Mus musculus; experiment: Induction of autophagy in APAP induced liver injury mouse model; format: functional, organism-based
[2] = biological target: T1, Dual specificity protein kinase CLK3 (Homo sapiens, UniProt P49761)
Target sequence in this assay (P49761 whole entry): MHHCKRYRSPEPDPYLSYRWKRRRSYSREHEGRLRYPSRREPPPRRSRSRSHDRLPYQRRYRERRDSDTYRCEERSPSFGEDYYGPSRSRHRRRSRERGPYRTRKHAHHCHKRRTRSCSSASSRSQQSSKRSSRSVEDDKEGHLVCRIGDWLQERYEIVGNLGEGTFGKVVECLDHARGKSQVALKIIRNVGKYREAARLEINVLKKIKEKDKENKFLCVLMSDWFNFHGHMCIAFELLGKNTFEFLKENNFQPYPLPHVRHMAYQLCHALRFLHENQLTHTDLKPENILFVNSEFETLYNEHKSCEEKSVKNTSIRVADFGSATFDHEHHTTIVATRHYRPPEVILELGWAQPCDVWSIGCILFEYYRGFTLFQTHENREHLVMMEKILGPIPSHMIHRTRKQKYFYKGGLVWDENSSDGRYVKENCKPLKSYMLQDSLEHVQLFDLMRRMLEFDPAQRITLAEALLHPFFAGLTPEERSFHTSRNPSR

[3] = biological target: T2, Dual specificity protein kinase CLK4 (Homo sapiens, UniProt Q9HAZ1)
[4] = biological target: T3, Dual specificity protein kinase CLK2 (Homo sapiens, UniProt P49760)
Target sequence in this assay (P49760 whole entry): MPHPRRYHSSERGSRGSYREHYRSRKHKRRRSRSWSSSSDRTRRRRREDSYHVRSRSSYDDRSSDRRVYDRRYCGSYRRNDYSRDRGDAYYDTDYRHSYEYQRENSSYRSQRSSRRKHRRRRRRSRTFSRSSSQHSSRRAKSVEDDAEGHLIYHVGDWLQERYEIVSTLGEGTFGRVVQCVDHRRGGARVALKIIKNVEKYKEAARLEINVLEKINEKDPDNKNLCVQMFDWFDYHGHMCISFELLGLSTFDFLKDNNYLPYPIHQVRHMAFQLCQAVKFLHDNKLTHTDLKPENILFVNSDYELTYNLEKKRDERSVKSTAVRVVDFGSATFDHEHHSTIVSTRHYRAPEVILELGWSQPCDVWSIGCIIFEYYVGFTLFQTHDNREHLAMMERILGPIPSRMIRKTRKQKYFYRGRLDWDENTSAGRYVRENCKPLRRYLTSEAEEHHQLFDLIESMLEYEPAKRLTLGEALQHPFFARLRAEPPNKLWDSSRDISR

[5] = biological target: T4, Dual specificity protein kinase CLK1 (Homo sapiens, UniProt P49759)
[6] = biological target: T3, Dual specificity protein kinase CLK2; experiment: Inhibition of human CLK2 at 1 uM
Target sequence in this assay (P49760 whole entry, looked up): as the sequence (P49760 whole entry) above

[7] = biological target: SRSF protein kinase 1 (Homo sapiens) (UniProt Q96SB4); experiment: Inhibition of SRSF phosphorylation in human HeLa cells; format: cell-based
[8] = system: PC-3; experiment: Cytotoxicity against human PC-3 cells; format: functional, cell-based
[9] = system: MCF7; experiment: Cytotoxicity against human MCF7 cells; format: functional, cell-based
[10] = species on record: Homo sapiens; experiment: Inhibition of DYRK kinase (unknown origin) at 100 uM
[11] = system: T-24; experiment: Cytotoxicity against T24 cells (unknown origin) assessed as supressed cell growth; format: functional, cell-based; conditions: Homo sapiens
[12] = system: MDA-MB-231; experiment: Cytotoxicity against MDA-MB-231 cells (unknown origin) assessed as supressed cell growth; format: functional, cell-based; conditions: Homo sapiens
[13] = biological target: T1, Dual specificity protein kinase CLK3; experiment: Inhibition of human CLK3 assessed as residual activity at 3 uM
Target sequence in this assay (P49761 whole entry, looked up): as the sequence (P49761 whole entry) above

[14] = system: Lung cancer cell line; experiment: Cytotoxicity against lung cancer cells (unknown origin); format: functional, cell-based; conditions: Homo sapiens
[15] = system: Triple-negative breast cancer cell; experiment: Antitumour activity expressed in triple negative breast cells (unknown origin) with dysfunctional G1-S checkpoint; format: functional, cell-based; conditions: Homo sapiens
[16] = system: Cancer cell lines; experiment: Antiproliferative activity against cancer cells (unknown origin); format: functional, cell-based; conditions: Homo sapiens
[17] = species on record: Homo sapiens; experiment: Selectivity ratio of IC50 for inhibition of human CLK3 to IC50 for inhibition of human CLK2 by biochemical caliper assay
[18] = biological target: T4, Dual specificity protein kinase CLK1; experiment: Inhibition of CLK1 (unknown origin)
[19] = biological target: T3, Dual specificity protein kinase CLK2; experiment: Inhibition of CLK2 (unknown origin)
Target sequence in this assay (P49760 whole entry): as the sequence (P49760 whole entry) above

[20] = biological target: T3, Dual specificity protein kinase CLK2; experiment: Inhibition of human CLK2 measured by DSF assay
Target sequence in this assay (P49760 whole entry, looked up): as the sequence (P49760 whole entry) above

[21] = Antifibrotic activity in TGF-beta1 induced primary human lung fibroblast; format: functional, cell-based
[22] = biological target: T4, Dual specificity protein kinase CLK1; experiment: Inhibition of human CLK1 administered orally
[23] = biological target: T3, Dual specificity protein kinase CLK2; experiment: Inhibition of human CLK2 administered orally
Target sequence in this assay (P49760 whole entry): as above

[24] = biological target: T1, Dual specificity protein kinase CLK3; experiment: Inhibition of human CLK3 administered orally
Target sequence in this assay (P49761 whole entry): as the sequence (P49761 whole entry) above

[25] = biological target: T2, Dual specificity protein kinase CLK4; experiment: Inhibition of human CLK4 administered orally

T4 sequence (P49759 whole entry): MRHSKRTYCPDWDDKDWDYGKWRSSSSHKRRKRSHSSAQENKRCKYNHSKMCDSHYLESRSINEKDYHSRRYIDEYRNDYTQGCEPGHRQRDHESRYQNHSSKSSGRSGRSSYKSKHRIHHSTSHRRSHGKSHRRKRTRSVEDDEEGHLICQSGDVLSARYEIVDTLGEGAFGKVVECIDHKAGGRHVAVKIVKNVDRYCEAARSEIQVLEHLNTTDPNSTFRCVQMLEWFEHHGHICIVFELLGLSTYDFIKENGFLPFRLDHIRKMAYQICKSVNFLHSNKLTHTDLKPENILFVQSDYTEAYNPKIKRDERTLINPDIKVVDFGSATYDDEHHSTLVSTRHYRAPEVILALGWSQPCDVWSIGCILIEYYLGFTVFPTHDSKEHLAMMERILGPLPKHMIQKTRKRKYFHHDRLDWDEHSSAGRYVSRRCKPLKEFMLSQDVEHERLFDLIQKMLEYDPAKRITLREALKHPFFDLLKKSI
T2 sequence (Q9HAZ1 whole entry): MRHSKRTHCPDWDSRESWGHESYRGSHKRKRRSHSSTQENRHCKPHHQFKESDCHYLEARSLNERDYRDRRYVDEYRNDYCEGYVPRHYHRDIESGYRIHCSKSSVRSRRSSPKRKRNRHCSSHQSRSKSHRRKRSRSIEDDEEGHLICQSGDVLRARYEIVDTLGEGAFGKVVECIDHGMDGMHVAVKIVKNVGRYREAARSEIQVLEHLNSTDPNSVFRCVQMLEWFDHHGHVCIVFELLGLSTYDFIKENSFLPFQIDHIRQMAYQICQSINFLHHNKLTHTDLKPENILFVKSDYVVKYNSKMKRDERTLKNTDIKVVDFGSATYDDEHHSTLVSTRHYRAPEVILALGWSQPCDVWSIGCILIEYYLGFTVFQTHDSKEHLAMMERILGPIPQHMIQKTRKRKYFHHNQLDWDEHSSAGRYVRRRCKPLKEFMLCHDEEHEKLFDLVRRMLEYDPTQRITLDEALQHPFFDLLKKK
SRSF protein kinase 1 (Homo sapiens), sequence (Q96SB4 whole entry): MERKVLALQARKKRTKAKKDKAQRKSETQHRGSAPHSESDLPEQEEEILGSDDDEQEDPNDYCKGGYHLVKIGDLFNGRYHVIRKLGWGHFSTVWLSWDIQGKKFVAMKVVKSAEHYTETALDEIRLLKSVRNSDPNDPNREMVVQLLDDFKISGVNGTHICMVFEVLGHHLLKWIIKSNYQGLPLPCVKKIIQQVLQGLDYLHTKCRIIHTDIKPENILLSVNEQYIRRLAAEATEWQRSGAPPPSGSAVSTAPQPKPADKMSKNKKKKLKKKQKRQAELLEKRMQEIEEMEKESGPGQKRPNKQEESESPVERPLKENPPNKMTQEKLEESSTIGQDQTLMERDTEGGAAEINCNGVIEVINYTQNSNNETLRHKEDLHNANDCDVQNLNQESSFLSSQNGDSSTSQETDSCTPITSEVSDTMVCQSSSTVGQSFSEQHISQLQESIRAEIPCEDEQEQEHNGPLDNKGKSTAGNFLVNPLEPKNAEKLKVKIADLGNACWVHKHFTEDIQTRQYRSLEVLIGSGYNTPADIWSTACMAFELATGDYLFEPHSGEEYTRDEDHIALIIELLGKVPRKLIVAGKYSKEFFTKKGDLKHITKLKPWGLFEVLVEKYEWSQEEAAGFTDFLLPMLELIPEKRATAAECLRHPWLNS

Row | SMILES | IC50 [2] | IC50 [4] | IC50 [5] | other results
1 | C[C@@H](c1ccc(F)cc1)n1nnc2cnc3ccc(-c4ccc5ocnc5c4)cc3c21 | 8 nM |  |  | Activity [1]: Active
2 | O=C1NC(Nc2ccccc2)=N/C1=C\c1ccc2c(c1)OCO2 | > 10000 nM |  |  | IC50 [3]: 64 nM
3 | COc1cc(/C=C2\N=C(N)NC2=O)ccc1O [POLYANDROCARPAMINE A] | > 2000 nM | 640 nM | 470 nM | IC50 [3]: 470 nM
4 | CC(C)c1cnn2c(NCc3ccc(-c4ccccn4)cc3)nc(N[C@H]3CC[C@H](N)CC3)nc12 | 2.9 nM | 130 nM | 100 nM | IC50 [3]: 89 nM
5 | COc1ccc2sc(C(=O)N(C)OC)cc2c1 |  |  |  | inhibition [6]: 73%
6 | CN1CCN(C(=O)C(C)(C)c2ccc(C(=O)Nc3cn4cc(-c5ccncc5)ccc4n3)cc2)CC1 |  |  |  | inhibition [7]: Dose-Dependent Effect
7 | c1cc(-c2ccc3[nH]ncc3c2)ccn1 |  |  | 113 nM | inhibition [6]: 85%
8 | O=[N+]([O-])c1ccccc1-n1cc(COc2cccc3cnc(Nc4cccc(Cl)c4)nc23)nn1 | > 1000 nM | 27 nM | 11 nM | IC50 [8]: 7000 nM; IC50 [9]: 4000 nM; inhibition [10]: inactive; IC50 [3]: 20 nM
9 | O=C(O)c1nc2ccccc2c2[nH]c3c(Cl)cccc3c12 | > 100 nM |  | 130 nM | IC50 [3]: 45 nM
10 | CN1C(=O)/C(=C/c2ccc3c(c2)OCO3)N=C1N [LEUCETTAMINE B] |  | 720 nM |  | 
11 | CC(C)(C)c1ccc(C(=O)Nc2cn3cc(-c4ccncc4)ccc3n2)cn1 |  | 2.4 nM | 1.1 nM | 
12 | COc1ccc2sc(C(=O)N(C)Cc3cccc(F)c3)cc2c1 |  | 19.1 nM | 7 nM | Activity [11]: Active; IC50 [3]: 2.3 nM; Activity [12]: Active
13 | CNC(=O)c1ccc(Nc2nc(OC3CCCC3)c3c(-c4ccc5nc(C)oc5c4)c[nH]c3n2)c(OC)c1 |  |  |  | Activity [13]: 60%; Activity [14]: Active; Activity [15]: Active
14 | Cc1ccc(CNc2ncnc3ccc(-c4ccc(CO)o4)cc23)o1 | > 10000 nM |  |  | 
15 | CC(C)(CO)c1ccc(C(=O)Nc2cn3cc(-c4cn[nH]c4)ccc3n2)cn1 |  | 2.1 nM | 1.1 nM | 
16 | Cc1nc2ccc3sc(NC(=O)c4ccc5scnc5c4)nc3c2s1 | 346 nM | 68 nM | 51 nM | 
17 | O=C1NCc2ccc3c(-c4cccc(Cl)c4)c[nH]c3c21 | 28 nM | 510 nM | 88 nM | Activity [16]: Active
18 | O=C1NCc2c(Cl)cc3c(-c4ccccc4)c[nH]c3c21 | 300 nM | 33 nM | 380 nM | 
19 | COc1ccc(NC(=O)c2n[nH]c3ccc(-c4cncc(CN5CCCCC5)c4)cc23)cc1 |  | 0.822 nM |  | 
20 | Cc1[nH]nc2ccc(-c3cncc(OC[C@@H](N)CC(C)C)c3)cc12 |  |  |  | Ratio IC50 [17]: 225
21 | COc1cccc2c1[nH]c1c3ccncc3cc(C#N)c21 |  |  |  | IC50 [18]: 44 nM; IC50 [19]: 41 nM
22 | CC(C)n1cnc2c(Nc3cc(N)cc(Cl)c3)nc(NC3CCCCC3N)nc21 (stereo not drawn) | 1000 nM | 6 nM | 17 nM | IC50 [3]: 25 nM
23 | COc1cc(Nc2nccc(-c3cnn4nc(OC)ccc34)n2)cc(C(F)(F)F)c1 |  |  | 13 nM | 
24 | CCOC(=O)c1c(/C(C#N)=C\N)c2ccc(Cl)c(Cl)c2n1C |  |  |  | inhibition [20]: Active
25 | c1csc(CNc2ncnc3ccc(-c4ccc5c(c4)OCO5)cc23)c1 | 470 nM | 680 nM | 37 nM | IC50 [3]: 50 nM
26 | COc1c(O)ccc2c(=O)c3c(O)cc4c(c3[nH]c12)C=CC(C)(C)O4 | > 2000 nM |  | 210 nM | 
27 | O=C(Nc1cccnc1)c1c[nH]nc1-c1nc2c(-c3cccc(F)c3)cccc2[nH]1 |  | 11 nM |  | EC50 [21]: 18 nM
28 | CNc1nc(NCc2ncccn2)c2c(-c3ccc4ncccc4c3)c[nH]c2n1 |  |  |  | IC50 [22]: 4.8 nM; IC50 [23]: 0.096 nM; IC50 [24]: 6.5 nM; IC50 [25]: 0.61 nM
29 | N=C1NC(=O)/C(=C/c2ccc3c(c2)CCO3)S1 |  | 6800 nM |  | 

Source: ChEMBL document CHEMBL5236556, “Development of Cdc2-like Kinase 2 Inhibitors: Achievements and Future Directions” (J Med Chem, 2021)
